For the experiment, the system named is MV-4-11 cells. Nature of the experiment: Gene expression microarray analysis (Affymetrix PrimeView) and GSEA. The conditions noted are these: ProbeSet 11721969_s_at; LIST B. Set-up: RFU PODN (11730768_x_at) / Fold change /veh PODN (11730768_x_at) / RFU LINC00158 (11744669_a_at) / Fold change /veh LINC00158 (11744669_a_at) / RFU DUSP10 (11751237_a_at) / Fold change /veh DUSP10 (11751237_a_at) / RFU ID3 (11757404_x_at) / Fold change /veh ID3 (11757404_x_at) / RFU PLEKHG5 (11737974_s_at) / Fold change /veh PLEKHG5 (11737974_s_at) / RFU LRRC4B (11730491_at) / Fold change /veh LRRC4B (11730491_at) / RFU GIMAP4 (11747438_a_at) / Fold change /veh GIMAP4 (11747438_a_at) / RFU KRT8 (11758183_x_at) / Fold change /veh KRT8 (11758183_x_at) / RFU CNN1 (11734310_a_at) / Fold change /veh CNN1 (11734310_a_at) / RFU VPS37D (11726825_at) / Fold change /veh VPS37D (11726825_at) / RFU C10orf10 (11716522_x_at) / Fold change /veh C10orf10 (11716522_x_at) / RFU KIR2DL2 /// KIR2DL4 /// KIR2DL5A /// KIR2DL5B /// KIR2DS1 /// KIR2DS2 /// KIR2DS3 /// KIR2DS4 /// KIR3DL3 /// KIR3DL3 /// KIR3DS1 (11738374_at) / Fold change /veh KIR2DL2 /// KIR2DL4 /// KIR2DL5A /// KIR2DL5B /// KIR2DS1 /// KIR2DS2 /// KIR2DS3 /// KIR2DS4 /// KIR3DL3 /// KIR3DL3 /// KIR3DS1 (11738374_at) / RFU C1QL1 (11718748_at) / Fold change /veh C1QL1 (11718748_at) / RFU TMPRSS4 (11747572_a_at) / Fold change /veh TMPRSS4 (11747572_a_at) / RFU HAMP (11756126_x_at) / Fold change /veh HAMP (11756126_x_at) / RFU RNFT2 (11725882_a_at) / Fold change /veh RNFT2 (11725882_a_at) / RFU NR4A2 (11747474_a_at) / Fold change /veh NR4A2 (11747474_a_at) / RFU ABCC12 (11746883_a_at) / Fold change /veh ABCC12 (11746883_a_at) / RFU TMEM136 (11760407_x_at) / Fold change /veh TMEM136 (11760407_x_at) / RFU CLDN22 /// WWC2 (11732394_at) / Fold change /veh CLDN22 /// WWC2 (11732394_at) / RFU HLA-DPB1 (11760878_x_at) / Fold change /veh HLA-DPB1 (11760878_x_at) / RFU SPINT1 (11716480_a_at) / Fold change /veh SPINT1 (11716480_a_at) / RFU GAP43 (11754022_s_at) / Fold change /veh GAP43 (11754022_s_at) / RFU A4GNT (11735810_at) / Fold change /veh A4GNT (11735810_at) / RFU PRB3 (11715151_x_at) / Fold change /veh PRB3 (11715151_x_at) / RFU TUBB4B (11761932_at) / Fold change /veh TUBB4B (11761932_at) / RFU CAPN14 (11732068_a_at) / Fold change /veh CAPN14 (11732068_a_at) / RFU TMCC2 (11721928_a_at) / Fold change /veh TMCC2 (11721928_a_at) / RFU IRGQ (11745062_a_at) / Fold change /veh IRGQ (11745062_a_at) / RFU FAM174B (11720279_a_at) / Fold change /veh FAM174B (11720279_a_at) / RFU TMPRSS4 (11748680_a_at) / Fold change /veh TMPRSS4 (11748680_a_at) / RFU FAM212B (11763350_a_at) / Fold change /veh FAM212B (11763350_a_at) / RFU PLEKHG5 (11743358_a_at) / Fold change /veh PLEKHG5 (11743358_a_at) / RFU ZSCAN30 (11745921_a_at) / Fold change /veh ZSCAN30 (11745921_a_at) / RFU CMKLR1 (11741424_a_at) / Fold change /veh CMKLR1 (11741424_a_at) / RFU LOC101060620 /// MAPK8IP1 (11723275_at) / Fold change /veh LOC101060620 /// MAPK8IP1 (11723275_at) / RFU SPTSSB (11747773_x_at) / Fold change /veh SPTSSB (11747773_x_at) / RFU PRSS12 (11739890_at) / Fold change /veh PRSS12 (11739890_at) / RFU BIN1 (11741810_x_at) / Fold change /veh BIN1 (11741810_x_at) / RFU WNT11 (11732464_a_at) / Fold change /veh WNT11 (11732464_a_at) / RFU C10orf10 (11716521_a_at) / Fold change /veh C10orf10 (11716521_a_at) / RFU C5orf56 (11738089_at) / Fold change /veh C5orf56 (11738089_at) / RFU CYB561 (11721691_x_at) / Fold change /veh CYB561 (11721691_x_at) / RFU ANKRD19P (11752326_a_at) / Fold change /veh ANKRD19P (11752326_a_at) / RFU OR2T12 /// OR2T33 /// OR2T8 (11738714_s_at) / Fold change /veh OR2T12 /// OR2T33 /// OR2T8 (11738714_s_at) / RFU VCAN (11748164_a_at) / Fold change /veh VCAN (11748164_a_at) / RFU JSRP1 (11732532_at) / Fold change /veh JSRP1 (11732532_at) / RFU KRTAP10-11 (11738290_x_at) / Fold change /veh KRTAP10-11 (11738290_x_at) / RFU MYO3A (11730013_a_at) / Fold change /veh MYO3A (11730013_a_at) / RFU EBF3 (11725865_a_at) / Fold change /veh EBF3 (11725865_a_at) / RFU CAMK2N1 (11719241_x_at) / Fold change /veh CAMK2N1 (11719241_x_at) / RFU C5orf56 (11738088_a_at) / Fold change /veh C5orf56 (11738088_a_at) / RFU OLFML3 (11715873_a_at) / Fold change /veh OLFML3 (11715873_a_at) / RFU LOC100653217 /// NTM (11731650_a_at) / Fold change /veh LOC100653217 /// NTM (11731650_a_at) / RFU MAPK11 (11762145_a_at) / Fold change /veh MAPK11 (11762145_a_at) / RFU FIZ1 (11724087_x_at) / Fold change /veh FIZ1 (11724087_x_at) / RFU OASL (11726364_x_at) / Fold change /veh OASL (11726364_x_at) / RFU SOX15 (11748057_x_at) / Fold change /veh SOX15 (11748057_x_at) / RFU CD79A (11719716_a_at) / Fold change /veh CD79A (11719716_a_at) / RFU HIST1H1D (11736915_at) / Fold change /veh HIST1H1D (11736915_at) / RFU CASKIN2 (11723855_a_at) / Fold change /veh CASKIN2 (11723855_a_at) / RFU LOC730098 (11760151_x_at) / Fold change /veh LOC730098 (11760151_x_at) / RFU OR4N2 (11742367_at) / Fold change /veh OR4N2 (11742367_at) / RFU PRRT2 (11749266_a_at) / Fold change /veh PRRT2 (11749266_a_at) / RFU SNX32 (11753110_a_at) / Fold change /veh SNX32 (11753110_a_at) / RFU CDHR5 (11726645_a_at) / Fold change /veh CDHR5 (11726645_a_at) / RFU RCAN1 (11760418_a_at) / Fold change /veh RCAN1 (11760418_a_at) / RFU FAM167A (11723789_a_at) / Fold change /veh FAM167A (11723789_a_at) / RFU FAM26E (11764081_at) / Fold change /veh FAM26E (11764081_at) / RFU ISYNA1 (11749810_s_at) / Fold change /veh ISYNA1 (11749810_s_at) / RFU ACY1 (11761880_at) / Fold change /veh ACY1 (11761880_at) / RFU 11764098_at / Fold change /veh 11764098_at / RFU SAMD14 (11745864_x_at) / Fold change /veh SAMD14 (11745864_x_at) / RFU NPB (11741838_a_at) / Fold change /veh NPB (11741838_a_at) / RFU TMPRSS6 (11731388_a_at) / Fold change /veh TMPRSS6 (11731388_a_at) / RFU KRTAP10-2 (11738614_at) / Fold change /veh KRTAP10-2 (11738614_at) / RFU ARHGAP8 /// PRR5-ARHGAP8 (11727945_x_at) / Fold change /veh ARHGAP8 /// PRR5-ARHGAP8 (11727945_x_at) / RFU KRTAP5-7 /// NADSYN1 (11734609_at) / Fold change /veh KRTAP5-7 /// NADSYN1 (11734609_at) / RFU RASL12 (11751679_a_at) / Fold change /veh RASL12 (11751679_a_at) / RFU CDKN2B (11736163_a_at) / Fold change /veh CDKN2B (11736163_a_at) / RFU PRF1 (11729649_at) / Fold change /veh PRF1 (11729649_at) / RFU, ZNF638 /// ZNF638-IT1 / Fold change vs veh, ZNF638 /// ZNF638-IT1 / RFU, PANK3 / Fold change vs veh, PANK3 / RFU, SH3YL1 / Fold change vs veh, SH3YL1 / RFU, ZEB2 / Fold change vs veh, ZEB2 / RFU, NRIP1 / Fold change vs veh, NRIP1 / RFU, PTTG1IP / Fold change vs veh, PTTG1IP / RFU, CAPN2 / Fold change vs veh, CAPN2 / RFU, MED14 / Fold change vs veh, MED14 / RFU, SNORA58 / Fold change vs veh, SNORA58 / RFU, C1orf63 / Fold change vs veh, C1orf63 / RFU, LRRFIP1 / Fold change vs veh, LRRFIP1 / RFU, NDUFAF7 / Fold change vs veh, NDUFAF7 / RFU, SLC12A2 / Fold change vs veh, SLC12A2 / RFU, IBTK / Fold change vs veh, IBTK / RFU, ESF1 / Fold change vs veh, ESF1 / Fold change vs veh, TMEM50B / RFU, TAOK1 / Fold change vs veh, TAOK1 / RFU, ACBD3 / Fold change vs veh, ACBD3 / RFU, TMA16 / Fold change vs veh, TMA16 / RFU, RWDD3 / Fold change vs veh, RWDD3 / RFU, BCAT1 / Fold change vs veh, BCAT1 / RFU, EDEM3 / Fold change vs veh, EDEM3 / RFU, TMEM33 / Fold change vs veh, TMEM33 / RFU, WDR75 / Fold change vs veh, WDR75 / RFU, AHCTF1 / Fold change vs veh, AHCTF1 / RFU, TFRC / Fold change vs veh, TFRC / RFU, ZDHHC17 / Fold change vs veh, ZDHHC17 / RFU, NOM1 / Fold change vs veh, NOM1 / RFU, ARL8B / Fold change vs veh, ARL8B / RFU, ZBTB11 / Fold change vs veh, ZBTB11 / RFU, TAMM41 / Fold change vs veh, TAMM41 / RFU, KIAA1704 /// LOC100996395 / Fold change vs veh, KIAA1704 /// LOC100996395 / RFU, ING1 / Fold change vs veh, ING1 / RFU, TRMT61B / Fold change vs veh, TRMT61B / RFU, FUBP3 / Fold change vs veh, FUBP3 / RFU, TP53 / Fold change vs veh, TP53 / RFU, TNKS2 / Fold change vs veh, TNKS2 / RFU, ZFP14 / Fold change vs veh, ZFP14 / RFU, ACTR2 / Fold change vs veh, ACTR2 / RFU, PPP3R1 / Fold change vs veh, PPP3R1 / RFU, PIK3R1 / Fold change vs veh, PIK3R1 / RFU, HNRNPA1 / Fold change vs veh, HNRNPA1 / RFU, RNF170 / Fold change vs veh, RNF170 / RFU, ZNF28 / Fold change vs veh, ZNF28 / RFU, RNGTT / Fold change vs veh, RNGTT / RFU, OGT / Fold change vs veh, OGT / RFU, BRD1 / Fold change vs veh, BRD1 / RFU, MARS / Fold change vs veh, MARS / RFU, ZNF655 / Fold change vs veh, ZNF655 / RFU, FAHD1 / Fold change vs veh, FAHD1 / RFU, BDP1 / Fold change vs veh, BDP1 / RFU, LRRCC1 / Fold change vs veh, LRRCC1 / RFU, ARID1A / Fold change vs veh, ARID1A / RFU, ZNF146 / Fold change vs veh, ZNF146 / RFU, ZNF330 / Fold change vs veh, ZNF330 / RFU, GPN3 / Fold change vs veh, GPN3 / RFU, C9orf123 / Fold change vs veh, C9orf123 / RFU, N4BP2L2 / Fold change vs veh, N4BP2L2 / RFU, ARFIP1 / Fold change vs veh, ARFIP1 / RFU, FAM179B / Fold change vs veh, FAM179B / RFU, BCL10 / Fold change vs veh, BCL10 / RFU, UHRF1BP1L / Fold change vs veh, UHRF1BP1L / RFU, BET1 / Fold change vs veh, BET1 / RFU, CNOT2 / Fold change vs veh, CNOT2 / RFU, ZNF268 / Fold change vs veh, ZNF268 / Fold change vs veh, ZNF507 / RFU, DGCR2 / Fold change vs veh, DGCR2 / RFU, WDSUB1 / Fold change vs veh, WDSUB1 / Fold change vs veh, HSP90B1 /// MIR3652 / RFU, ADSS / Fold change vs veh, ADSS / RFU, GK / Fold change vs veh, GK / RFU, ZNF148 / Fold change vs veh, ZNF148 / RFU, TAF9 / Fold change vs veh, TAF9 / RFU, SLC1A5 / Fold change vs veh, SLC1A5 / RFU, SLMO2 / Fold change vs veh, SLMO2 / RFU, ABCC4 / Fold change vs veh, ABCC4 / RFU, LOC101060439 /// RAP1B / Fold change vs veh, LOC101060439 /// RAP1B / RFU, RFX7 / Fold change vs veh, RFX7 / RFU, GTPBP10 / Fold change vs veh, GTPBP10 / RFU, CNEP1R1 / Fold change vs veh, CNEP1R1 / RFU, BIVM-ERCC5 /// ERCC5 / Fold change vs veh, BIVM-ERCC5 /// ERCC5 / RFU, ILF3 / Fold change vs veh, ILF3 / RFU 11762660_at / Fold change /veh 11762660_at / RFU VCAN (11757783_s_at) / Fold change /veh VCAN (11757783_s_at) / RFU DDX43 (11728927_at) / Fold change /veh DDX43 (11728927_at) / RFU KRT8 (11758188_x_at) / Fold change /veh KRT8 (11758188_x_at) / RFU NKD1 (11759106_at) / Fold change /veh NKD1 (11759106_at) / RFU SRD5A1 (11742802_a_at) / Fold change /veh SRD5A1 (11742802_a_at) / RFU TPSAB1 /// TPSB2 (11721975_s_at) / Fold change /veh TPSAB1 /// TPSB2 (11721975_s_at) / RFU GSTM3 (11746129_a_at) / Fold change /veh GSTM3 (11746129_a_at) / RFU IL23R (11737362_x_at) / Fold change /veh IL23R (11737362_x_at) / RFU TMEM51 (11727254_a_at) / Fold change /veh TMEM51 (11727254_a_at) / RFU PIWIL2 (11732686_x_at) / Fold change /veh PIWIL2 (11732686_x_at) / RFU ORM1 (11744905_x_at) / Fold change /veh ORM1 (11744905_x_at) / RFU CCDC152 (11743942_at) / Fold change /veh CCDC152 (11743942_at) / RFU ECM1 (11717891_a_at) / Fold change /veh ECM1 (11717891_a_at) / RFU IL23R (11748794_a_at) / Fold change /veh IL23R (11748794_a_at) / RFU TNFAIP8L3 (11732012_x_at) / Fold change /veh TNFAIP8L3 (11732012_x_at) / RFU MBOAT4 (11741988_at) / Fold change /veh MBOAT4 (11741988_at) / RFU 11764193_at / Fold change /veh 11764193_at / RFU TMEM53 (11763286_at) / Fold change /veh TMEM53 (11763286_at) / RFU MAGEB2 (11727129_at) / Fold change /veh MAGEB2 (11727129_at) / RFU TMEM200A (11744735_a_at) / Fold change /veh TMEM200A (11744735_a_at) / RFU CCDC152 (11751479_a_at) / Fold change /veh CCDC152 (11751479_a_at) / RFU FAM211A (11726209_a_at) / Fold change /veh FAM211A (11726209_a_at) / RFU RGS16 (11746705_a_at) / Fold change /veh RGS16 (11746705_a_at) / RFU VCAN (11755009_s_at) / Fold change /veh VCAN (11755009_s_at) / RFU RHOB (11743442_s_at) / Fold change /veh RHOB (11743442_s_at) / RFU RGS16 (11720943_a_at) / Fold change /veh RGS16 (11720943_a_at) / RFU RGS16 (11720944_at) / Fold change /veh RGS16 (11720944_at) / RFU, VPS4B / Fold change vs veh, VPS4B / RFU, CREB1 / Fold change vs veh, CREB1 / RFU, DNAJC13 / Fold change vs veh, DNAJC13 / RFU, GNAQ / Fold change vs veh, GNAQ / RFU, CDK5R1 / Fold change vs veh, CDK5R1 / RFU, ZRANB3 / Fold change vs veh, ZRANB3 / RFU, CUL4A / Fold change vs veh, CUL4A / RFU, CCNY / Fold change vs veh, CCNY / RFU, UFL1 / Fold change vs veh, UFL1 / RFU, COG3 / Fold change vs veh, COG3 / RFU, DIAPH2 / Fold change vs veh, DIAPH2 / RFU, SKA2 / Fold change vs veh, SKA2 / RFU, AFF3 / Fold change vs veh, AFF3 / RFU, LMF1 / Fold change vs veh, LMF1 / RFU, IPO11 / Fold change vs veh, IPO11 / RFU, DFFB / Fold change vs veh, DFFB / RFU, FOXP1 / Fold change vs veh, FOXP1 / RFU, CARD8 / Fold change vs veh, CARD8 / RFU, STRN3 / Fold change vs veh, STRN3 / RFU, ADK / Fold change vs veh, ADK / RFU, RASSF2 / Fold change vs veh, RASSF2 / RFU, WIPF1 / Fold change vs veh, WIPF1 / RFU, LARP1B / Fold change vs veh, LARP1B / RFU, RASA1 / Fold change vs veh, RASA1 / RFU, RB1 / Fold change vs veh, RB1 / RFU, PPFIA1 / Fold change vs veh, PPFIA1 / RFU, MAT2A / Fold change vs veh, MAT2A / RFU, CCT5 / Fold change vs veh, CCT5 / RFU, WDR92 / Fold change vs veh, WDR92 / RFU, CUX1 / Fold change vs veh, CUX1 / RFU, TTC7A / Fold change vs veh, TTC7A / RFU, TMEM135 / Fold change vs veh, TMEM135 / RFU, DEPTOR / Fold change vs veh, DEPTOR / RFU, CPM / Fold change vs veh, CPM / RFU, DNAJB6 / Fold change vs veh, DNAJB6 / RFU, CACNA2D3 / Fold change vs veh, CACNA2D3 / RFU, DTX4 / Fold change vs veh, DTX4 / RFU, TFCP2 / Fold change vs veh, TFCP2 / RFU, GMCL1 /// GMCL1P1 / Fold change vs veh, GMCL1 /// GMCL1P1 / RFU, AEBP2 / Fold change vs veh, AEBP2 / RFU, SNHG1 /// SNORD22 /// SNORD25 /// SNORD26 /// SNORD27 /// SNORD28 /// SNORD29 /// SNORD31 / Fold change vs veh, SNHG1 /// SNORD22 /// SNORD25 /// SNORD26 /// SNORD27 /// SNORD28 /// SNORD29 /// SNORD31 / Fold change (Aza/veh), C12orf56 (ProbeSet 11735607_a_at) / Fold change (ACY-1035/veh), C12orf56 (ProbeSet 11735607_a_at) / Fold change (Aza/veh), FGFR1OP (ProbeSet 11751329_s_at) / Fold change (ACY-1035/veh), FGFR1OP (ProbeSet 11751329_s_at) / Fold change (Aza/veh), VPS36 (ProbeSet 11739960_a_at) / Fold change (ACY-1035/veh), VPS36 (ProbeSet 11739960_a_at) / RFU SYPL1 (11715823_x_at) / Fold change /veh SYPL1 (11715823_x_at) / RFU IGFBP7 (11715501_s_at) / Fold change /veh IGFBP7 (11715501_s_at) / RFU REEP3 (11722064_at) / Fold change /veh REEP3 (11722064_at) / RFU IGLL1 (11728026_x_at) / Fold change /veh IGLL1 (11728026_x_at): dose or concentration left out as unconfirmed. Type of experiment: cell-based, human.

The source of these data is paper PMC5218480 (PLoS ONE, 2017).

Regarding `Nc1ccc(-c2cccs2)cc1NC(=O)c1ccc2c(c1)cc(C1CC1)n2CCN1CCOCC1` [ACY-1035], the “Fold change vs veh, BDP1” value is 0.84.
